Tests used:
[1] = for molar entropy: 101.33 kPa, Small (less than 1 g) adiabatic calorimetry
[2] = Molar enthalpy of transition or fusion; conditions: Crystal; Adiabatic calorimetry

CC(C)(C)c1ccc(Oc2ccc([N+](=O)[O-])cc2)cc1 [1-(tert-butyl)-4-(4-nitrophenoxy)benzene]
[1]
Conditions	Glass transition temperature [°C]	Triple point temperature [K]	molar entropy [J/K/mol]
5 K, Crystal	–	–	0.4639
10 K, Crystal	–	–	3.11
15 K, Crystal	–	–	7.882
20 K, Crystal	–	–	14.05
25 K, Crystal	–	–	21.04
30 K, Crystal	–	–	28.52
35 K, Crystal	–	–	36.25
40 K, Crystal	–	–	44.07
45 K, Crystal	–	–	51.97
50 K, Crystal	–	–	59.86
60 K, Crystal	–	–	75.08
70 K, Crystal	–	–	89.8
80 K, Crystal	–	–	104.1
90 K, Crystal	–	–	117.98
100 K, Crystal	–	–	131.7
110 K, Crystal	–	–	145.09
120 K, Crystal	–	–	158.31
130 K, Crystal	–	–	171.36
140 K, Crystal	–	–	184.17
150 K, Crystal	–	–	196.89
160 K, Crystal	–	–	209.52
170 K, Crystal	–	–	222
180 K, Crystal	–	–	234.38
190 K, Crystal	–	–	246.69
200 K, Crystal	–	–	259
210 K, Crystal	–	–	271.13
220 K, Crystal	–	–	283.27
230 K, Crystal	–	–	295.33
240 K, Crystal	–	–	307.47
250 K, Crystal	–	–	319.44
260 K, Crystal	–	–	331.5
270 K, Crystal	–	–	343.55
280 K, Crystal	–	–	355.53
290 K, Crystal	–	–	367.58
298.15 K, Crystal	–	–	377.39
300 K, Crystal	–	–	379.64
310 K, Crystal	–	–	391.78
320 K, Crystal	–	–	403.92
330 K, Crystal	–	–	416.14
334.8 K, Crystal	–	–	422.04
334.8 K, Liquid	–	–	482.07
340 K, Liquid	–	–	488.97
350 K, Liquid	–	–	502.03
360 K, Liquid	–	–	514.91
370 K, Liquid	–	–	527.55
Crystal, Adiabatic calorimetry	–	334.8	–
Glass, Adiabatic calorimetry	-39.3	–	–

Conditions	Molar enthalpy of transition or fusion [kcal/mol]
[2]	4.802

— the NIST ThermoML archive (doi:10.1016/j.jct.2016.10.031)
